# Reference: patent publication US20220235065A1 (Epizyme, Inc., priority 2016, published 2022)
# Where a name gives a salt, the structure may show the parent alone.
# Molecular target: T1, recombinant purified human EHMT2 913-1193 (Homo sapiens, UniProt Q96KQ7)
# T1 construct: Recombinant purified human EHMT2 913-1193 (55 μM) synthesized by Viva was used for all experiments; purchased Viva
# T1 sequence (Q96KQ7 913-1193): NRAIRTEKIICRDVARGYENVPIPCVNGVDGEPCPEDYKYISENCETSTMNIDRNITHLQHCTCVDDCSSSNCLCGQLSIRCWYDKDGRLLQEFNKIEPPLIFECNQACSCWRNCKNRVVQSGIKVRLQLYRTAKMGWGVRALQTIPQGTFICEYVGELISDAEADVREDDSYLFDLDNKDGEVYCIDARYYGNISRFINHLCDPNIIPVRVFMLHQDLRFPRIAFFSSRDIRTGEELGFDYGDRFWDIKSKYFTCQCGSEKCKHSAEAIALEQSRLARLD
# Test: EHMT2 enzyme assay on histone peptide substrate (3H-SAM Flashplate)
# Format: biochemical
# Conditions: read-out: EHMT2 PEP (IC50 μM)
# Method in brief: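 Compounds (10-point 3-fold series, top 50 μM final, 2% DMSO) preincubated 30 min with 0.031 nM EHMT2 in 20 mM Bicine pH 7.5, 1 mM TCEP; reaction started with 3H-SAM and biotinylated H3 1-15 peptide, both at Km, run 60 min at room temperature. Flashplate capture; IC50 from four-parameter fit, triplicates.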
row,IC50 [µM],Structure (SMILES)
1,1 to 10,CNc1cc(C2CCOCC2)c2cc(OC)c(-n3cc(CN(C)C)nn3)cc2n1 [Compound 116]
2,1 to 10,CNc1cc(C)nc(Nc2ccc(OC)c(-c3nc4c([nH]3)CNCC4)c2)n1 [Compound 78]
3,< 0.1,"CNc1cc(C)nc(Nc2ccc(OC)c(-n3cc(C4CCCN4)nn3)c2)n1 (stereo not shown) [Compound 137, N2-(4-methoxy-3-(4-(pyrrolidin-2-yl)-1H-1,2,3-triazol-1-yl)phenyl)-N4,6-dimethylpyrimidine-2,4-diamine]"
4,> 10,CNc1cc(C)nc(Nc2ccc(OC)c(-n3ccc(CN(C)C(C)=O)n3)c2)n1 [Compound 96]
5,0.1 to 1,CNc1cc(C)c2cc(OC)c(-n3cc(C4CCCN4)nn3)cc2n1 (stereo not shown) [Compound 125]
6,0.1 to 1,CNC(=O)N1CC(CNc2cc(C)nc(Nc3ccc(OC)c(-n4cc5c(n4)CCN(C)C5)c3)n2)C1 [Compound 88]
7,0.1 to 1,CNc1cc(C)nc(Nc2ccc(OC)c(-n3cc(CN4CCC4)nn3)c2)n1 [Compound 121]
8,> 10,CNc1cc(C)nc(Nc2ccc(OC)c(-n3ccc(CNC(C)=O)n3)c2)n1 [Compound 95]
9,> 10,CNCc1c(C)nn(-c2cc(Nc3nc(C)cc(NC)n3)ccc2OC)c1C [Compound 106]
10,1 to 10,CNc1cc(C)nc(Nc2ccc(OC)c(-n3cc4c(C)nccc4n3)c2)n1 [Compound 99]
11,> 10,CNc1cc(C)nc(Nc2ccc(OC)c(-n3cc(C)c(CNC(C)=O)n3)c2)n1 [Compound 94]
12,0.1 to 1,CCN(CC)Cc1cn(-c2cc(Nc3nc(C)cc(NC)n3)ccc2OC)nn1 [Compound 143]
13,> 10,CNc1cc(C)nc(Nc2ccc(OC)c(-n3nnc(CN(C)C)c3C)c2)n1 [Compound 139]
14,1 to 10,CNc1cc(C)nc(Nc2ccc(OC)c(-n3cc(C)c(CN(C)C)n3)c2)n1 [Compound 102]
15,> 10,CNc1cc(C)nc(Nc2ccc(OC)c(-n3ncc4ncccc43)c2)n1 [Compound 119]
16,> 10,COc1ncc(Nc2nc(C)cc(NCC3COC3)n2)cc1-n1cc(CN(C)C)nn1 [Compound 86]
17,< 0.1,"CNc1cc(C)nc(Nc2ccc(OC)c(-n3ncc4c3CCNC4)c2)n1 [Compound 113, N2-(4-methoxy-3-(4,5,6,7-tetrahydro-1H-pyrazolo[4,3-c]pyridin-1-yl)phenyl)-N4,6-dimethylpyrimidine-2,4-diamine]"

row,IC50 [µM],Structure (SMILES)
1,1 to 10,CNc1cc(C)nc(Nc2ccc(OC)c(-c3nc4c([nH]3)CN(C)CC4)c2)n1 [Compound 79]
2,1 to 10,CNc1cc(C)nc(Nc2ccc(OC)c(-n3cc(C)c4c3CCN(C)C4)c2)n1 [Compound 81]
3,> 10,CNC(=O)c1c(C)nn(-c2cc(Nc3nc(C)cc(NC)n3)ccc2OC)c1C [Compound 105]
4,> 10,CNc1cc(C)nc(Nc2ccc(OC)c(-n3nnc(C)c3CN(C)C)c2)n1 [Compound 138]
5,> 10,CNC(=O)c1nn(-c2cc(Nc3nc(C)cc(NC)n3)ccc2OC)cc1C [Compound 134]
6,> 10,CNC(=O)c1cnn(-c2cc(Nc3nc(C)cc(NC)n3)ccc2OC)c1 [Compound 104]
7,> 10,CNC(=O)c1cn(-c2cc(Nc3nc(C)cc(NC)n3)ccc2OC)nc1C [Compound 103]
8,0.1 to 1,CNC(=O)CCNc1cc(C)nc(Nc2ccc(OC)c(-n3cc4c(n3)CCN(C)C4)c2)n1 [Compound 87]
9,> 10,CNc1cc(C)nc(Nc2ccc(OC)c(-n3cc4cc(C5CC5)ccc4n3)c2)n1 [Compound 145]
10,> 10,CNC(=O)c1cn(-c2cc(Nc3nc(C)cc(NC)n3)ccc2OC)nn1 [Compound 117]
11,1 to 10,CNCc1cn(-c2cc3nc(NC)cc(C)c3cc2OC)nn1 [Compound 122]
12,< 0.1,"CNc1cc(C)nc(Nc2ccc(OC)c(-n3cc(CN(C)C)cn3)c2)n1 [Compound 109, N2-(3-(4-((dimethylamino)methyl)-1H-pyrazol-1-yl)-4-methoxyphenyl)-N4,6-dimethylpyrimidine-2,4-diamine]"
13,> 10,CNc1cc(C)nc(Nc2ccc(OC)c(-c3cc4cnccn4n3)c2)n1 [Compound 93]
14,0.1 to 1,CNc1cc(C)nc(Nc2ccc(OC)c(-n3cc(C4CCCN4C)nn3)c2)n1 (stereo not shown) [Compound 136]
15,0.1 to 1,CNc1cc(C)nc(Nc2ccc(OC)c(-n3cc4c(n3)CCN(C3CC3)C4)c2)n1 [Compound 82]
16,1 to 10,CNc1cc(C)nc(Nc2ccc(OC)c(-n3cc4cc(C)ccc4n3)c2)n1 [Compound 144]
17,> 10,CNc1cc(C)nc(Nc2ccc(OC)c(-n3cc4c(OC)nccc4n3)c2)n1 [Compound 100]

# The remaining lines, values behind:
row,Structure (SMILES),IC50 [µM]
1,CNc1cc(C)nc(Nc2ccc(OC)c(-c3cc4cnccc4[nH]3)c2)n1 [Compound 48],0.1 to 1
2,CNc1cc(C)nc(Nc2ccc(OC)c(-n3cnc(CN(C)C)n3)c2)n1 [Compound 61],> 10
3,CNc1cc(C)nc(Nc2ccc(OC)c(-n3cc4c(n3)CCOC4)c2)n1 [Compound 43],> 10
4,CNc1cc(C)nc(Nc2ccc(OC)c(-c3nnc(CN(C)C)[nH]3)c2)n1 [Compound 73],> 10
5,CNc1cc(C)nc(Nc2ccc(OC)c(-c3nc4cnccc4[nH]3)c2)n1 [Compound 47],1 to 10
6,CNc1cc(C)nc(Nc2cnc(OC)c(-n3cc4c(n3)CCN(C)C4)c2)n1 [Compound 57],1 to 10
7,CNc1cc(C)nc(Nc2ccc(OC)c(-c3nnc4n3CCN(C(=O)OC(C)(C)C)C4)c2)n1 [Compound 77],> 10
8,CNc1cc(C)nc(Nc2ccc(OC)c(-n3cnc(CN4CC(F)C4)n3)c2)n1 [Compound 68],> 10
9,CNc1cc(C)nc(Nc2ccc(OC)c(-n3cc4c(n3)CCN(C3COC3)C4)c2)n1 [Compound 69],> 10
10,CNc1cc(C)nc(Nc2ccc(OC)c(-n3cc4c(n3)CN(C)CC4)c2)n1 [Compound 3],1 to 10
11,CNc1cc(C)nc(Nc2ccc(OC)c(-n3cc(CN(C)C)nn3)c2)n1 [Compound 66],0.1 to 1
12,CNc1cc(C)nc(Nc2ccc(OC)c(-n3ncc4c3CN(C(C)=O)CC4)c2)n1 [Compound 75],> 10
13,CNc1cc(C)nc(Nc2ccc(OC)c(-n3cnc(CN4CCC4)n3)c2)n1 [Compound 67],> 10
14,CNc1cc(C)nc(Nc2ccc(OC)c(-c3ccc4cc[nH]c4n3)c2)n1 [Compound 42],> 10
15,CNc1cc(C)nc(Nc2cnc(OC)c(-c3nc4cnccn4n3)c2)n1 [Compound 60],> 10
16,CNc1cc(C)nc(Nc2ccc(OC)c(-n3nccc3CNC(C)=O)c2)n1 [Compound 76],> 10
17,CNc1cc(C)nc(Nc2cc(-n3cc4c(n3)CCN(C)C4)c(OC)cn2)n1 [Compound 65],> 10
18,"CNc1cc(C)nc(Nc2ccc(OC)c(-n3cc4c(n3)CCCN4)c2)n1 [Compound 56, N2-(4-methoxy-3-(4,5,6,7-tetrahydro-2H-pyrazolo[4,3-b]pyridin-2-yl)phenyl)-N4,6-dimethylpyrimidine-2,4-diamine hydrochloride]",> 10
19,CNc1cc(C)nc(Nc2ccc(OC)c(-n3cc4ccncc4n3)c2)n1 [Compound 41],> 10
20,CCn1cc(NC(=O)c2cc(Nc3nc(C)cc(NC)n3)ccc2OC)cn1 [Compound 49],> 10
21,CNc1cc(C)nc(Nc2cnc(OC)c(-n3cnc(CN(C)C)n3)c2)n1 [Compound 62],> 10
22,CNc1cc(C)nc(Nc2ccc(OC)c(-n3cc4c(n3)CCN(C)C4)c2)n1 [Compound 2],< 0.1
23,CNc1cc(C)nc(Nc2cnc(OC)c(-n3cc4c(n3)CCNC4)c2)n1 [Compound 50],0.1 to 1
24,"CNc1cc(C)nc(Nc2ccc(OC)c(-n3cc(CN4CCCC4)cn3)c2)n1 [Compound 5, 2-N-[4-methoxy-3-[4-(pyrrolidin-1-ylmethyl)-1H-pyrazol-1-yl]phenyl]-4-N,6-dimethylpyrimidine-2,4-diamine]",1 to 10
25,CCN1CCc2nn(-c3cc(Nc4nc(C)cc(NC)n4)ccc3OC)cc2C1 [Compound 70],0.1 to 1
26,"CNc1cc(C)nc(Nc2ccc(OC)c(-n3ccc(CN4CCCC4)n3)c2)n1 [Compound 4, trifluoroacetic acid]",1 to 10
27,CNc1cc(C)nc(Nc2cnc(OC)c(-n3cc(CN(C)C)cn3)c2)n1 [Compound 74],0.1 to 1
